Laboratory results: patent publication US20160106107A1, “Compositions and Methods for Treating Microorganism” (priority 2006, published 2016)
“And” between values parts separate entries of the source, which are not always exact repeats. Equal values may be shown once. Read-outs that look alike come from different tables or passages of the source.

How the values were obtained:
[1] = test system: Pseudomonas syringae pv. phaseolicola HB-9 planktonic
[2] = test system: Pseudomonas syringae pv. phaseolicola HB-9 biofilm
[3] = test system: Pseudomonas syringae pv. phaseolicola on bean seed surface; details: Experiments 1-3; for Total microbial score: day 6, bacteria + fungi
[4] = test system: Erwinia carotovora subsp. carotovora (Ecc) biofilm; assay: Ecc biofilm susceptibility, 24 h contact time; format: cell-based; details: for Ecc biofilm cell counts (unlabelled fourth line = mean of 3) / Log reduction of Ecc biofilms / Ecc biofilm cell counts (single replicates): 24 h contact time
Description: Carotovora (Ecc), the Soft Rot of Vegetables Pathogen, in Comparison to Nanocrystalline Silver Powder

[5] = test system: naturally occurring microorganisms (bacteria and fungi) on bean seed surface; details: for Bacterial reduction / Fungal reduction / Total microbial reduction: vs untreated seeds, Experiments 1-3
Description: They included seeds that would normally be discarded during processing in a commercial seed treatment facility—damaged, discoloured, shrivelled or small seeds. Due to the fact they were not cleaned these seeds still contain soil, dirt, plant debris, etc. Therefore, this seed lot was expected to provide a good model for a high natural microbial challenge, with good diversity of organisms and high microbial recovery expected.
These seeds were processed and cleaned in a commercial seed treatment facility. Processing leads to rejection of small, damaged, and/or discoulored seeds, and thus a healthier overall seed lot. After processing, seeds were washed and cleaned, resulting in a significant reduction in soil, dirt or debris.
Experiments were conducted by treating lots of ‘Othello’ and ‘AC Polaris’ seeds with challenges described in Table 10. Seeds were placed individually onto wells of 12-well microtiter plates and treated for 1 h with silver and/or water. After treatment, seeds were rinsed by dipping into fresh phosphate buffer and subsequently transferred to a new 12-well microtiter plate containing fresh phosphate buffer and sonicated for 15-30 min. Sonication allowed for surviving bacterial and fungal to be removed from the seed surface and recovered into the liquid. After 6 days, each of the wells containing seeds were scored based on both: • the turbidity of the liquid in which they were originally immersed for treatment, on day 6. • seed surface area covered by bacterial and/or fungal colonization, also on day 6.
Six seeds were scored in each experiment and each experiment was repeated 3 times independently. Numbers presented on Tables 11, 13, and 15 represent the mean of 6 scores. […] Total microbial scores (bacteria and fungi together) and are represented as percentage of killing on Tables 12, 14, and 16.

Orford (Soybean) seeds = details: for % of seeds germinated: Day 7 (speed of germination); for % germination: Day 14
Description: Germination on blotters was scored at 7- and 14-days. Emergence from soil was scored at 21- and 28-days.
To treat seeds, one hundred seeds were placed in a 50-mL Falcon tube and combined with the treatment solution. Seeds were mixed with the treatment for 5-min by gently rolling and inverting the Falcon tube. Coated seeds were placed in an open Petri plate for 30-min to dry. Seeds were sown 10-per pot, set in a greenhouse, and maintained under standard conditions with mercury lamp lighting supplementing daylight from 3:00 pm to 10:00 pm.
Stir constantly. 5% solution—after the 10% solution has equilibrated for 15-min, add 0.5-mL of 10% solution to 0.5-mL of sterile water. Stir constantly. 2.5% solution—add 0.25-mL of 10% solution to 0.75-mL of sterile water. Stir constantly. 1% solution—add 0.1-mL of 10% solution to 0.9-mL of sterile water. Stir constantly. […] Gently roll and invert the tube for 5 min to evenly coat each seed without causing damage. Remove seeds from tube by pouring carefully into an empty Petri plate. Leave exposed (lid off) and air dry seeds for 30 min.
(1) Germination: Place 50 seeds from each treatment onto 25 individual moistened blotters in large Petri plates. Incubate at room temperature for 2-weeks with or without light. Score germination at 7- and 14-days. (2) Emergence: Sow 50 seeds from each treatment into five pots (10-seeds per pot and five pots per treatment). Place in a greenhouse at 22° C. with ample air circulation. Use mercury lamps to supplement lighting (on at 3:00 pm; off at 10:00 pm) if necessary. For pre-emergent plants, water pots as needed to keep soil moist but not wet. Water emergent plants daily. Score emergence at 21 and 28 days.
After seeds were treated and air-dried, they were sown in potted, non-sterile soil in a greenhouse. Alternatively they were placed on moist blotters in large Petri plates.

healthy dry bean seed = assay: Germination of healthy dry bean seed; format: in vivo
[6] = test system: dry bean (Phaseolus vulgaris L) seeds, cultivar Othello; assay: Germination of dry bean seeds with aqueous seed coating under high bacterial load; format: in vivo; details: for # seeds germinated / % germination / Day to 25% germination: high bacterial load
Procedure: The efficacy of high valency silver ions produced by oxysilver nitrate was evaluated as a seed treatment on diseased dry bean seeds. The oxysilver nitrate was applied as an aqueous seed coating on the germination of dry bean (Phaseolus vulgaris L).
Seeds were placed on blotters in Petri plates, were soaked in an excess of water for 3 days, then drained on day 4. The 3-day period of excess water created a very high bacterial load′ on the germinating seeds and high disease pressure due to pathogenic, saprophytic and soft-rot bacteria. This disease pressure was so extreme that the germination rates for experiments 2-5 were essentially zero due to being overwhelmed by the microbial growth.

[7] = lowest concentration (5000 ppm)
[8] = AC Polaris Inoculated, vs untreated seeds
[9] = AC Polaris seeds, inoculated w/ bacteria, 0.1%, 1 h, scored day 6 on scale 0-5, mean of 6 seeds
[10] = Othello Inoculated, vs untreated seeds

## O=S(=O)([O-])[O-].[Cu+2] [Copper sulfate]
[1]; 1250 ppm
  PspHB-9 Planktonic cell counts: 2.95 log10
[1]; 2900 ppm
  PspHB-9 Planktonic cell counts: 0 log10
[1]; 4600 ppm
  PspHB-9 Planktonic cell counts: 0 log10
[1]; [7]
  reduction of planktonics: ~48%
[2]; 1250 ppm
  PspHB-9 Biofilm cell counts: 5.15 log10
[2]; 2900 ppm
  PspHB-9 Biofilm cell counts: 0 log10
[2]; 4600 ppm
  PspHB-9 Biofilm cell counts: 0 log10
[2]; [7]
  reduction of biofilms: 17%
[2]; planktonic cells and biofilms
  concentration required to be effective: 11460 ppm

## oxysilver nitrate [High valency silver]
[3]; [8]
  Bacterial reduction: 100% and 96%
  Total microbial reduction: 100% and 96%
[3]; AC Polaris seeds, inoculated w/ bacteria, 0.1%, 1 h
  Total microbial score: 0
[3]; AC Polaris seeds, inoculated w/ bacteria, 0.1%, 1 h, listed as High valency silver nitrate 1
  Total microbial score: 0.16
[3]; [9]
  Bacteria score: 0
  Fungi score: 0
[3]; AC Polaris seeds, inoculated w/ bacteria, 0.1%, 1 h, scored day 6 on scale 0-5, mean of 6 seeds, listed as High valency silver nitrate 1
  Bacteria score: 0.16
[3]; [10]
  Bacterial reduction: 41% and 78% and 60%
  Fungal reduction: 78% and 75% and 100%
  Total microbial reduction: 65% and 77% and 79%
[3]; Othello seeds, inoculated w/ bacteria, 0.1%, 1 h
  Total microbial score: 1.83 and 1.32 and 1.66
[1]; 100 ppm
  PspHB-9 Planktonic cell counts: 0 log10
[1]; 500 ppm
  PspHB-9 Planktonic cell counts: 0 log10
[1]; 1000 ppm
  PspHB-9 Planktonic cell counts: 0 log10
[1]; at the lowest concentration
  eradication of planktonic: 100%
[4]; 50 ppm
  Ecc biofilm cell counts (unlabelled fourth line = mean of 3): 1.53 log10
  Log reduction of Ecc biofilms: 2.23
[4]; 50 ppm, listed as Oxy
  Ecc biofilm cell counts (single replicates): 1.60 log10 and 1.00 log10 and 2.00 log10
[4]; 100 ppm
  Ecc biofilm cell counts (unlabelled fourth line = mean of 3): 0.65 log10
  Log reduction of Ecc biofilms: 3.11
[4]; 100 ppm, listed as Oxy
  Ecc biofilm cell counts (single replicates): 0 log10 (2×) and 1.95 log10
[4]; 200 ppm
  Ecc biofilm cell counts (unlabelled fourth line = mean of 3): 0.70 log10
  Log reduction of Ecc biofilms: 3.06
[4]; 200 ppm, listed as Oxy
  Ecc biofilm cell counts (single replicates): 0 log10 (2×) and 2.11 log10
[4]; 500 ppm
  Ecc biofilm cell counts (single replicates): 0 log10
  Ecc biofilm cell counts (unlabelled fourth line = mean of 3): 0.00 log10
  Log reduction of Ecc biofilms: 3.76
[4]; plant pathogenic Erwinia spp.
  anti-microbial efficacy compared with nanocrystalline silver: as efficacious as nanocrystalline silver
[5]; AC Polaris Non-inoculated
  Bacterial reduction: 67% and 90% and 100%
  Fungal reduction: 100% and 62%
  Total microbial reduction: 81% and 78% and 100%
[5]; Othello Non-inoculated
  Bacterial reduction: 80% and 62% and 88%
  Fungal reduction: 70% and 100% and 74%
  Total microbial reduction: 75% and 86% and 81%
[5]; various bacterial and fungal species associated with seed surfaces, 3 independent replications
  bactericidal and fungicidal efficacy: good bactericidal and fungicidal efficacy
Orford (Soybean) seeds; 0.1%
  % of seeds germinated: 28%
  % germination: 50%
Orford (Soybean) seeds; 0.5%
  % of seeds germinated: 34.5%
  % germination: 58%
Orford (Soybean) seeds; 1%
  % of seeds germinated: 59.4%
  % germination: 64%
Orford (Soybean) seeds; 1%, after 14 days
  germination rate higher than water: 34%
Orford (Soybean) seeds; […]
  % of seeds germinated: 29.6%
  % germination: 54%
Orford (Soybean) seeds; soybean seeds and blotters
  bacterial growth on treated seeds: did not appear to have major bacterial growth
Healthy dry bean seed; 0.1%
  # seeds germinated: 84
  % germination: 84%
  Day to 50% germination: 6.5 days
  Day to 100% germination: 9.0 days
Healthy dry bean seed; 0.5%
  # seeds germinated: 86
  % germination: 86%
  Day to 50% germination: 6.0 days
  Day to 100% germination: 9.0 days
Healthy dry bean seed; 1%
  # seeds germinated: 89
  % germination: 89%
  Day to 100% germination: 9.0 days
Healthy dry bean seed; […]
  # seeds germinated: 81
  % germination: 81%
  Day to 100% germination: 9.0 days
Healthy dry bean seed; healthy dry bean seed
  germination compared with water control or Apron Maxx RTA: more rapid germination and higher percent germination rate
[6]; 0.1%
  # seeds germinated: 53
  % germination: 35.3%
  Day to 25% germination: 5 days
[6]; 0.5%
  # seeds germinated: 53
  % germination: 35.3%
  Day to 25% germination: 5 days
[6]; 1%, by day 10
  germination higher than Apron Maxx RTA: 54%
  increase of germination compared with the negative control (sterile water): 34.7%
[6]; 1%
  # seeds germinated: 91
  % germination: 60.7%
  Day to 25% germination: 5 days
[6]; […]
  # seeds germinated: 51
  % germination: 43.0%
  Day to 25% germination: 5 days
[2]; 100 ppm
  PspHB-9 Biofilm cell counts: 0 log10
[2]; 500 ppm
  PspHB-9 Biofilm cell counts: 0 log10
[2]; 1000 ppm
  PspHB-9 Biofilm cell counts: 0 log10
[2]; at the lowest concentration
  eradication of biofilm: 100%
